Data as given in patent US8592161B2, “Mutational profiles in HIV-1 protease correlated with phenotypic drug resistance” (Janssen R&D Ireland, priority 2002, dated 2013).
Where two headings read alike, the source gives them in different places.

Assays:
Format in all cases: cell-based
[1] = test system: HIV-1/LAI strain selected with Comp 1 (200 nM, 328 days), protease S37N R41S K70E; test: In vitro antiviral activity in acutely infected MT4 cells, selected strain; conditions: for EC50: Human immunodeficiency virus 1, Table 2, strain S37N R41S K70E (Comp 1 200 nM, 328 days), read-out: median EC50
Protocol: (§1) Determination of the antiviral activity of a compound was done as described in Pauwels R. et al. (J Virol Methods 1988; 20(4):309-21). Various concentrations of the test compounds were brought into each well of a flat-bottom microtiter plate. Subsequently, HIV and MT4 cells were added to a final concentration of 200-250 50% cell culture infectious doses (CCID50)/well and 30,000 cells/well, respectively. After 5 days of incubation (37° C., 5% CO2), the cytopathic effect of the replicating virus was determined by the tetrazolium colorimetric MTT method. The dose protecting 50% of the cells from virus cytopathic effect was defined as the EC50, while the dose achieving 90% protection was defined as the EC90.
(§2) MT4-LTR-EGFP cells were infected at a multiplicity of infection (MOI) of 0.01 to 0.001 CCID50/cell in the presence of inhibitor. The starting concentration of the inhibitor was two to tee times the EC50, a suboptimal concentration. The cultures were sub-cultivated and scored microscopically on virus-induced fluorescence and cytopathicity every 3-4 days. The cultures were sub-cultivated in the presence of the same compound concentration until signs of virus replication were observed. The escaping virus was further cultivated in the presence of the same inhibitor concentration in order to enrich the population in resistant variants. If full virus breakthrough was observed the supernatant was collected and stored (new virus strain). Afterwards, the same virus was challenged with a higher compound concentration in order to select variants able to grow in the presence of as high as possible inhibitor concentrations. From the new viruses, a virus stock was grown in the absence of inhibitor.
(§3) In vitro drug selection experiments starting from wild-type HIV-1 under pressure of compound 1, compound 2, and Nelfinavir (NFV) have been performed. Tables 1, 2, 3, 4, and 5 show the genotypic and phenotypic characterization of the selected strains.

[2] = test system: HIV-1/LAI strain selected with Comp 1 (100 nM, 195 days), protease S37N R41S K70E; test: as above; conditions: for EC50: Human immunodeficiency virus 1, Table 2, strain S37N R41S K70E (Comp 1 100 nM, 195 days), read-out: median EC50
Protocol: as §1, §2, §3

[3] = test system: HIV-1/LAI strain selected with Compound 1 (30 nM, 45 days), protease R41T; test: as above; conditions: for EC50: Human immunodeficiency virus 1, Table 1, strain R41T (Compound 1 30 nM, 45 days), read-out: median EC50
Protocol: as §1, §2, §3

[4] = test system: HIV-1/LAI strain selected with Comp 1 (100 nM, 139 days), protease S37S/N R41R/K K70E; test: as above; conditions: for EC50: Human immunodeficiency virus 1, Table 2, strain S37S/N R41R/K K70E (Comp 1 100 nM, 139 days), read-out: median EC50
Protocol: as §1, §2, §3

[5] = test system: HIV-1/LAI strain selected with Comp 1 (30 nM, 70 days), protease K70E; test: as above; conditions: for EC50: Human immunodeficiency virus 1, Table 2, strain K70E (Comp 1 30 nM, 70 days), read-out: median EC50
Protocol: as §1, §2, §3

[6] = test system: HIV-1 strain selected with Comp 1 (40 nM, 161 days), protease R41G V82I; test: as above; conditions: for EC50: Human immunodeficiency virus 1, Table 4, strain R41G V82I (Comp 1 40 nM, 161 days), read-out: median EC50
Protocol: as §1, §2, §3

[7] = test system: HIV-1 strain selected with Comp 1 (20 nM, 94 days), protease R41G/R V82V/I; test: as above; conditions: for EC50: Human immunodeficiency virus 1, Table 4, strain R41G/R V82V/I (Comp 1 20 nM, 94 days), read-out: median EC50
Protocol: as §1, §2, §3

[8] = test system: HIV-1 strain selected with Comp 1 (40 nM, 175 days), protease R41G V82I; test: as above; conditions: for EC50: Human immunodeficiency virus 1, Table 4, strain R41G V82I (Comp 1 40 nM, 175 days), read-out: median EC50
Protocol: as §1, §2, §3

[9] = test system: HIV-1/LAI strain selected with Compound 1 (100 nM, 188 days), protease R41T K70E; test: as above; conditions: for EC50: Human immunodeficiency virus 1, Table 1, strain R41T K70E (Compound 1 100 nM, 188 days), read-out: median EC50
Protocol: as §1, §2, §3

[10] = test system: HIV-1 starting strain of Table 4 (no compound, no mutations); test: In vitro antiviral activity in acutely infected MT4 cells, starting strain; conditions: for EC50: Human immunodeficiency virus 1, starting strain HIV-1, no compound, read-out: median EC50
Protocol: as §1, §2, §3

[11] = test system: HIV-1/LAI strain selected with Compound 1 (100 nM, 97 days), protease R41T K70E; test: In vitro antiviral activity in acutely infected MT4 cells, selected strain; conditions: for EC50: Human immunodeficiency virus 1, Table 1, strain R41T K70E (Compound 1 100 nM, 97 days), read-out: median EC50
Protocol: as §1
as §2, with “The cultures were sub-cultivated in the presence of the same compound concentration until signs of virus replication were observed.” left out, “Afterwards, the same virus was challenged with a higher compound concentration in order to select variants able to grow in the presence of as high as possible inhibitor concentrations.” left out

HIV-1/LAI = test: In vitro antiviral activity in acutely infected MT4 cells, wild type; conditions: read-out: median EC50
Protocol: as §1, §2, §3

[12] = test system: HIV-1/LAI strain selected with Compound 2 (100 nM), protease R41I; Table 3; test: In vitro antiviral activity in acutely infected MT4 cells, selected strain; conditions: Human immunodeficiency virus 1, R41I strain selected with Compound 2 100 nM (head lists 116, 200, 264 days; assignment unclear), read-out: median EC50
Protocol: as §1, §2, §3

[13] = test system: HIV-1/LAI strain selected with Compound 2 (100 nM), protease R41I; test: as above; conditions: Human immunodeficiency virus 1, Table 3, R41I strain selected with Compound 2 100 nM (head lists 116, 200, 264 days; assignment unclear), read-out: median EC50
Protocol: as §1
as §2, with “The cultures were sub-cultivated in the presence of the same compound concentration until signs of virus replication were observed.” left out, “Afterwards, the same virus was challenged with a higher compound concentration in order to select variants able to grow in the presence of as high as possible inhibitor concentrations.” left out

[14] = test system: HIV-1/LAI strain selected with NFV (9000 nM, 11l days), protease L10F D30N R41R/K K45I/K M46I V77I I84V/I I85V/I N88D; test: as above; conditions: Human immunodeficiency virus 1, Table 5, strain L10F D30N R41R/K K45I/K M46I V77I I84V/I I85V/I N88D (NFV 9000 nM, 11l days), read-out: median EC50
Protocol: as §1, §2, §3

[15] = test system: HIV-1/LAI strain selected with NFV (9000 nM, 140 days), protease L10F D30N R41R/K K45I/K M46I V77I I84V N88D; test: as above; conditions: Human immunodeficiency virus 1, Table 5, strain L10F D30N R41R/K K45I/K M46I V77I I84V N88D (NFV 9000 nM, 140 days), read-out: median EC50
Protocol: as §1, §2, §3

[16] = test system: HIV-1/LAI strain selected with NFV (3000 nM, 69 days), protease L10F D30N M46I V77I I85V/I N88D/N; test: as above; conditions: Human immunodeficiency virus 1, Table 5, strain L10F D30N M46I V77I I85V/I N88D/N (NFV 3000 nM, 69 days), read-out: median EC50
Protocol: as §1, §2, §3

[17] = test system: HIV-1/LAI strain selected with NFV (1000 nM, 35 days), protease D30N M46I; test: as above; conditions: Human immunodeficiency virus 1, Table 5, strain D30N M46I (NFV 1000 nM, 35 days), read-out: median EC50
Protocol: as §1, §2, §3

[18] = Human immunodeficiency virus 1, MT4, Table 1, wild-type HIV/LAI
[19] = Human immunodeficiency virus 1, MT4, Table 2, wild-type HIV-1/LAI
[20] = Human immunodeficiency virus 1, MT4, Table 4, wild-type HIV-1/LAI
[21] = Human immunodeficiency virus 1, MT4, Table 3, wild-type HIV-1/LAI
[22] = Human immunodeficiency virus 1, MT4, Table 5, wild-type HIV-1/LAI

Compound | EC50 [1] [nM] | EC50 [2] [nM] | EC50 [3] [nM] | EC50 [4] [nM] | EC50 [5] [nM] | EC50 [6] [nM] | EC50 [7] [nM] | EC50 [8] [nM] | EC50 [9] [nM] | EC50 [10] [nM] | EC50 [11] [nM] | EC50 (HIV-1/LAI; [18]) [nM] | EC50 (HIV-1/LAI; [19]) [nM] | EC50 (HIV-1/LAI; [20]) [nM] | EC50 [12] [nM] | EC50 [13] [nM] | EC50 (HIV-1/LAI; [21]) [nM] | EC50 [14] [nM] | EC50 [15] [nM] | EC50 [16] [nM] | other results
CC(C)CN(C[C@@H](O)[C@H](Cc1ccccc1)NC(=O)O[C@H]1CO[C@H]2OCC[C@H]21)S(=O)(=O)c1ccc(N)cc1 [Compound 1, Carbamic acid, [(1S,2R)-3-[[(4-aminophenyl)sulfonyl](2-methylpropyl)amino]-2-hydroxy-1-(phenylmethyl)propyl]-, (3R,3aS,6aR)-hexahydrofuro[2,3-b]furan-3-yl ester] | 0.4 | 4.7 | 7.7 | 2.5 | 6.5 | 2.6 | 1.1 | 1.9 | 44 | 3.4 | 26 | 3.2 | 2.6 | 2.6 | – | – | – | – | – | – | median FC (fold change in EC50 as compared to wild type) ([1]; Table 2, strain S37N R41S K70E (Comp 1 200 nM, 328 days)): 0.2; median FC (fold change in EC50 as compared to wild type) ([2]; Table 2, strain S37N R41S K70E (Comp 1 100 nM, 195 days)): 2; median FC (fold change in EC50 as compared to wild type) ([3]; Table 1, strain R41T (Compound 1 30 nM, 45 days)): 2; median FC (fold change in EC50 as compared to wild type) ([4]; Table 2, strain S37S/N R41R/K K70E (Comp 1 100 nM, 139 days)): 1; median FC (fold change in EC50 as compared to wild type) ([5]; Table 2, strain K70E (Comp 1 30 nM, 70 days)): 3; median FC (fold change in EC50 as compared to wild type) ([6]; Table 4, strain R41G V82I (Comp 1 40 nM, 161 days)): 1; median FC (fold change in EC50 as compared to wild type) ([7]; Table 4, strain R41G/R V82V/I (Comp 1 20 nM, 94 days)): 0; median FC (fold change in EC50 as compared to wild type) ([8]; Table 4, strain R41G V82I (Comp 1 40 nM, 175 days)): 1; median FC (fold change in EC50 as compared to wild type) ([9]; Table 1, strain R41T K70E (Compound 1 100 nM, 188 days)): 10; median FC (fold change in EC50 as compared to wild type) ([10]; starting strain HIV-1, no compound): 1; median FC (fold change in EC50 as compared to wild type) ([11]; Table 1, strain R41T K70E (Compound 1 100 nM, 97 days)): 8
CC(C)CN(C[C@@H](O)[C@H](Cc1ccccc1)NC(=O)O[C@H]1CO[C@H]2OCC[C@H]21)S(=O)(=O)c1ccc2nc(NCCN3CCCC3)sc2c1 [Compound 2] | – | – | – | – | – | – | – | – | – | – | – | – | – | – | 6.9 | 61 | 12 | – | – | – | –
Cc1cccc(C)c1OCC(=O)N[C@@H](Cc1ccccc1)[C@@H](O)C[C@H](Cc1ccccc1)NC(=O)[C@H](C(C)C)N1CCCNC1=O [Lopinavir] | 1.1 | 3.9 | 27 | 2.8 | 17 | 1.8 | 2 | 1 | 47 | 6.8 | – | 7.9 | 4.6 | 4.6 | < 0.9 | 18 | 4.6 | 39 | 56 | 24 | EC50 [17]: 7.7 nM; EC50 (HIV-1/LAI; [22]): 4.6 nM
CC(C)c1nc(CN(C)C(=O)N[C@H](C(=O)N[C@@H](Cc2ccccc2)C[C@H](O)[C@H](Cc2ccccc2)NC(=O)OCc2cncs2)C(C)C)cs1 [Ritonavir] | 31 | 14 | 32 | 22 | 47 | 6.3 | 4.2 | 1.7 | 46 | 22 | 21 | 31 | 33 | 33 | 22 | – | 33 | 86 | 170 | 27 | EC50 [17]: 19 nM; EC50 (HIV-1/LAI; [22]): 33 nM
